# Measurements: patent US9938249B2, “Anti-amyloid compounds containing benzofurazan” (Treventis Corporation, priority 2014, dated 2018)
# Molecular target: Terminally biotinylated beta-amyloid (Aβ42) (Homo sapiens, UniProt P05067)
# Assay: Aβ42 biotinylated (biotin-AB) oligomerization assay, NeutrAvidin capture ELISA
# Type: biochemical
# Settings: approximate value; 1 hr oligomerization at room temperature; read-out: IC50 Aβ 42-bio
# Protocol: Aβ42 Biotinylated Assay Terminally biotinylated beta-amyloid (biotin-AB) was dissolved in HFIP at the concentration of 1 mg/ml and aliquoted to 50 μl/tube in 0.65 ml colored microfuge tubes (Fisher 02-681-248). The aliquots were diluted immediately by adding 450 μl of HFIP to 0.1 mg/ml. Approximately 46 ul (containing approximately 4.6 ug of biotin-AB) were taken from a tube, 100 ul of HFIP added, vortexed, and dried to a thin film under an N2 stream. 100 μl of trifluoroacetic acid (TFA) was added and vortexed. After 10 minute incubation at room temperature in a hood, resulting in disaggregation of seeds, the sample was vortexed again and dried again to a thin film under an N2 stream. 100 μl of HFIP was added, mixed, and the biotin-AB sample was dried for a third time under an N2 stream to remove residual TFA. The treated biotin-AB was dissolved in DMSO to a final peptide concentration of […] (SOX). An ELISA “capture” plate (Costar 9018) was coated with 50 μl of 1 μg/ml NeutrAvidin™ (NA) in 10 mM sodium phosphate buffer, pH 7.5. (NeutrAvidin can be prepared as 1 mg/ml (1000×) in milliQ water/10% glycerol and stored at −80° C. before use.) The plate was sealed plate with adhesive film and stored at 4° C. overnight, then blocked for 2 hours (unsealed) at room temperature with 200 μl/well OFB+0.1% v/v Tween 20. The “capture” plate was allowed to come to room temperature. Several dilutions of test compound were prepared with 100% DMSO, according to the desired concentration to be tested. 2.5 μl of diluted test compound was pipetted into the bottom of each well of a 96-well “dilution” polypropylene plate (Costar 3365), to which was added 250 ul of Oligomer Formation Buffer (OFB: 20 mM sodium phosphate, pH 7.5-150 mM NaCl). To begin oligomerization, 2 μl/well of the biotin-AB was added to the bottom of each well of a 96-well “reaction” polypropylene plate (Costar 3365) and 100 ul of each well of the “dilution” plate was transferred to the “reaction” plate (final concentration of DMSO being up to 1%). The reaction plate was sealed and incubated for 1 hr at room temperature without shaking. The reaction was then stopped by the addition of 50 ul of 0.3% Tween 20 in water. The “capture” plate blocking solution was removed, and 50 ul of each well of the “reaction” plate was transferred to each well of the “capture” plate. The “capture” plate was sealed and incubated for 2 hours at room temperature with shaking at 150 rpm. The “capture” plate was then washed on a plate washer (3×) with 200 ul/well TBST (20 mM Tris-HCL, pH 7.5/150 mM NaCl/0.1% Tween 20). 50 ul of Streptavidin-horseradish […] (1:20,000 dilution) in OFB+0.1% Tween 20 was added to each well, the “capture” plate was sealed and incubated for 1 hr with shaking at 150 rpm. As before, the plate was washed, then 100 ul of TMB/H2O2 substrate solution was added to each well. After 5-10 minutes, 100 ul of 1% v/v sulfuric acid was added and the absorbance of each well was read at 450 nm using a standard plate reader. Data is summarized in the table below; numbers given in parenthesis for the Aβ 40 Thioflavin T assays are the values in that particular experiment for compound ID 1027, given as the first entry in this table for structural comparison. “IC50 Aβ42-bio” column refers to the approximate value of the Aβ42 biotinylated assay IC50 in micromoles/L.
# Terminally biotinylated beta-amyloid (Aβ42), sequence (P05067 672-713, species assumed): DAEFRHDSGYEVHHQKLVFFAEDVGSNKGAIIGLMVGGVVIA
row,SMILES,IC50 [µM]
1,OCc1csc(-c2cc(N3CC(CN4CCOCC4)C3)c3nonc3c2)n1 [compound 1565],> 20
2,CC(c1cc(N2CC(CN3CCCC3)C2)c2nonc2c1)N(C1CC1)S(C)(=O)=O (stereo not shown) [compound 1549],5.5
3,Fc1ccc(-c2cc(N3CC(CN4CCCC4)C3)c3nonc3c2)cc1 [compound 1547],12
4,CC(=O)NC1CCN(c2cc(-c3ccc(C4(O)COC4)cc3)cc3nonc23)CC1 [compound 1735],2.4
5,CC(NC1CC1)c1cc(N2CC(CN3CCCC3)C2)c2nonc2c1 (stereo not shown) [compound 1551],6.8
6,"Clc1cc(Cl)cc(-c2cc(N3CC(CN4CCOCC4)C3)c3nonc3c2)c1 [compound 1575, 6-(3,5-dichlorophenyl)-4-(3-(morpholinomethyl)azetidin-1-yl) benzo[c][1,2,5]oxadiazole]",4
7,"CC(C)(O)/C=C/c1cc(N2CC(CN3CCOCC3)C2)c2nonc2c1 [compound 1645, (E)-2-methyl-4-(7-(3-(morpholinomethyl)azetidin-1-yl)benzo[c][1,2,5]oxadiazol-5-yl)but-3-en-2-ol]",> 20
8,O=C(c1cc(N2CC(CN3CCCC3)C2)c2nonc2c1)N1CCCCC1 [compound 1552],5.7
9,c1csc(-c2cc(N3CC(CN4CCCC4)C3)c3nonc3c2)n1 [compound 1560],6.7
10,"COc1cc(-c2cc(N3CC(CN4CCOCC4)C3)c3nonc3c2)ccc1C1CC1 [compound 1660, 6-(4-cyclopropyl-3-methoxyphenyl)-4-(3-(morpholinomethyl)azetidin-1-yl) benzo[c][1,2,5]oxadiazole]",3.9
11,OC1(c2ccc(-c3cc(N4CC(CN5CCOCC5)C4)c4nonc4c3)cc2)COC1 [compound 1639],3.2
12,"OCc1coc(-c2cc(N3CC(CN4CCOCC4)C3)c3nonc3c2)n1 [compound 1606, (2-(7-(3-(morpholinomethyl)azetidin-1-yl)benzo[c][1,2,5]oxadiazol-5-yl)oxazol-4-yl)methanol]",> 20
13,"NC(=O)c1ccc(-c2cc(N3CC(CN4CCCC4)C3)c3nonc3c2)cc1 [compound 1579, 4-(7-(3-(pyrrolidin-1-ylmethyl)azetidin-1-yl)benzo[c][1,2,5]oxadiazol-5-yl)benzamide]",96
14,OC1(c2ccc(-c3cc(N4CCC(N5CCOCC5)C4)c4nonc4c3)cc2)COC1 (stereo not shown) [compound 1719],13
15,OCc1nc(-c2cc(N3CC(CN4CCOCC4)C3)c3nonc3c2)no1 [compound 1629],15.7
16,OC1(c2cccc(-c3cc(N4CC(CN5CCOCC5)C4)c4nonc4c3)c2)COC1 [compound 1638],3
17,Cc1cc(C)c(-c2cc(N3CC(CN4CCCC4)C3)c3nonc3c2)c(C)c1 [compound 1558],5.9
18,NC(=O)c1cc(N2CC(CN3CCCC3)C2)c2nonc2c1 [compound 1548],25.3
19,"c1ccc(-c2cc(N3CC(CN4CCCC4)C3)c3nonc3c2)nc1 [compound 1580, 6-(Pyridin-2-yl)-4-(3-(pyrrolidin-1-ylmethyl)azetidin-1-yl)benzo[c][1,2,5]oxadiazole]",> 20
20,OC1(c2ccc(-c3cc(N4CCC(N5CCOCC5)CC4)c4nonc4c3)cc2)COC1 [compound 1717],22.6
21,CC(=O)N1CCCCC1c1cc(N2CC(CN3CCCC3)C2)c2nonc2c1 (stereo not shown) [compound 1555],5
22,"OCc1cc(N2CC(CN3CCOCC3)C2)c2nonc2c1 [compound 1571, (7-(3-(morpholinomethyl)azetidin-1-yl)benzo[c][1,2,5]oxadiazol-5-yl)methanol]",> 20

# The next lines start with the values.
row,IC50 [µM],SMILES
1,10.4,OC(c1nc(-c2cc(N3CC(CN4CCOCC4)C3)c3nonc3c2)cs1)C(F)(F)F (stereo not shown) [compound 1627]
2,11.2,"COc1ccc(-c2cc(N3CC(CN4CCOCC4)C3)c3nonc3c2)cn1 [compound 1670, 6-(6-methoxypyridin-3-yl)-4-(3-(morpholinomethyl)azetidin-1-yl) benzo[c][1,2,5]oxadiazole]"
3,8.4,OC(c1cnc(-c2cc(N3CC(CN4CCCC4)C3)c3nonc3c2)s1)C(F)(F)F (stereo not shown) [compound 1546]
4,14.7,Cn1ncc(-c2cc(N3CC(CN4CCOCC4)C3)c3nonc3c2)c1C(O)C(F)(F)F (stereo not shown) [compound 1647]
5,8.4,OC(c1ccc(-c2cc(N3CC(CN4CCCC4)C3)c3nonc3c2)nc1)C(F)(F)F (stereo not shown) [compound 1545]
6,> 20,"COc1ncccc1-c1cc(N2CC(CN3CCOCC3)C2)c2nonc2c1 [compound 1658, 6-(2-methoxypyridin-3-yl)-4-(3-(morpholinomethyl)azetidin-1-yl) benzo[c][1,2,5]oxadiazole]"
7,11.5,"OC(c1ncccc1-c1cc(N2CC(CN3CCOCC3)C2)c2nonc2c1)C(F)(F)F (stereo not shown) [compound 1569, 2,2,2-trifluoro-1-(3-(7-(3-(morpholinomethyl)azetidin-1-yl)benzo[c][1,2,5]oxadiazol-5-yl)pyridin-2-yl) ethan-1-ol]"
8,> 20,OCc1ccccc1-c1cc(N2CC(CN3CCOCC3)C2)c2nonc2c1 [compound 1572]
9,> 20,OCc1cnc(-c2cc(N3CC(CN4CCOCC4)C3)c3nonc3c2)s1 [compound 1594]
10,16.2,CC(C)(O)c1ccc(-c2cc(N3CC(CN4CCOCC4)C3)c3nonc3c2)cc1 [compound 1616]
11,12.4,"COc1cc(-c2cc(N3CC(CN4CCOCC4)C3)c3nonc3c2)ccn1 [compound 1659, 6-(2-methoxypyridin-4-yl)-4-(3-(morpholinomethyl)azetidin-1-yl) benzo[c][1,2,5]oxadiazole]"
12,> 20,"OC(c1cccnc1-c1cc(N2CC(CN3CCOCC3)C2)c2nonc2c1)C(F)(F)F (stereo not shown) [compound 1563, 2,2,2-trifluoro-1-(2-(7-(3-(morpholinomethyl)azetidin-1-yl)benzo[c][1,2,5]oxadiazol-5-yl)pyridin-3-yl)ethan-1-ol]"
13,3.9,OC(c1cncc(-c2cc(N3CC(CN4CCCC4)C3)c3nonc3c2)c1)C(F)(F)F (stereo not shown) [compound 1544]
14,26.9,OC(c1nc(-c2cc(N3CC(CN4CCCC4)C3)c3nonc3c2)cs1)C(F)(F)F (stereo not shown) [compound 1567]
15,41.9,"N#Cc1ccccc1-c1cc(N2CC(CN3CCOCC3)C2)c2nonc2c1 [compound 1586, 2-(7-(3-(morpholinomethyl)azetidin-1-yl)benzo[c][1,2,5]oxadiazol-5-yl)benzonitrile]"
16,14.8,"N#Cc1cccc(-c2cc(N3CC(CN4CCOCC4)C3)c3nonc3c2)c1 [compound 1577, 3-(7-(3-(morpholinomethyl)azetidin-1-yl)benzo[c][1,2,5]oxadiazol-5-yl)benzonitrile]"
17,8.6,"OC(c1coc(-c2cc(N3CC(CN4CCOCC4)C3)c3nonc3c2)n1)C(F)(F)F (stereo not shown) [compound 1608, 2,2,2-trifluoro-1-(2-(7-(3-(morpholinomethyl)azetidin-1-yl)benzo[c][1,2,5]oxadiazol-5-yl)oxazol-4-yl)ethan-1-ol]"
18,14.2,"FC(F)(F)c1nc(-c2cc(N3CC(CN4CCOCC4)C3)c3nonc3c2)no1 [compound 1643, 4-(3-(morpholinomethyl)azetidin-1-yl)-6-(5-(trifluoromethyl)-1,2,4-oxadiazol-3-yl)benzo[c][1,2,5]oxadiazole]"
19,4.2,OC(c1cnc(-c2cc(N3CC(CN4CCOCC4)C3)c3nonc3c2)s1)C(F)(F)F (stereo not shown) [compound 1625]
20,> 20,"NC(=O)c1ccc(-c2cc(N3CC(CN4CCOCC4)C3)c3nonc3c2)cc1 [compound 1610, 4-(7-(3-(morpholinomethyl)azetidin-1-yl)benzo[c][1,2,5]oxadiazol-5-yl)benzamide]"
21,12.3,"OC(c1ccnc(-c2cc(N3CC(CN4CCCC4)C3)c3nonc3c2)c1)C(F)(F)F (stereo not shown) [compound 1587, 2,2,2-trifluoro-1-(2-(7-(3-(pyrrolidin-1-ylmethyl)azetidin-1-yl)benzo[c][1,2,5]oxadiazol-5-yl)pyridin-4-yl)ethan-1-ol]"
